As usually defined, the EC50 is the concentration needed to bring the measured effect to its halfway point.

One experiment deals with HCV 1b-377-neo replicon cells. The experiment can be described thus: HCV replicon assay, wild-type cells. The class given is cell-based. To be noted: Hepatitis C virus, read-out: EC50 against the HCV 1b genotype (Activity). How it is done: An HCV Replion assay was utilized in the present disclosure, and was prepared, conducted and validated as described in commonly owned PCT/US2006/022197 and in O'Boyle et. al. Antimicrob Agents Chemother. 2005 April; 49(4): 1346-53.
HCV 1b-377-neo replicon cells were used to test representative compounds described within this disclosure as were cells resistant to compound A due to a Y2065H mutation in NS5A (described in application PCT/US2006/022197). The compounds tested were determined to have an approximately 10-fold less inhibitory activity on cells resistant to compound A than wild-type cells indicating a related mechanism of action between the two compound series. Thus, the compounds can be effective to be effective to inhibit the function of the HCV NS5A protein and are understood to be as effective in combinations as previously described in application PCT/US2006/022197 and commonly owned WO/04014852. Further, the compounds are effective against the HCV 1b genotype. It should also be understood that the compounds of the present disclosure can inhibit multiple genotypes of HCV. […] Ranges are as follows: A=1-10 μM; B=100-999 nM; C=1-99 nM; and D=10-999 pM.
(In antiviral work, replicon cells carry a viral genome segment that copies itself.)
For `COC(=O)N[C@@H](C(=O)N1CCC[C@H]1c1cc(-c2ccc(-c3ccc(-c4cnc([C@@H]5CCCN5C(=O)[C@H](NC(=O)OC)c5ccccc5)[nH]4)cc3)cc2)n[nH]1)c1ccccc1` [Example 31], the 50% effective concentration (EC50) was in the range of 0.01 to 0.999 nM.
Consider `CN(C)[C@@H](C(=O)N1CCC[C@H]1c1cc(-c2ccc(-c3ccc(-c4cnc([C@@H]5CCCN5C(=O)[C@@H](c5ccccc5)N(C)C)[nH]4)cc3)cc2)n[nH]1)c1ccccc1` [Example 32], for which the EC50 was in the range of 0.01 to 0.999 nM.
On to `COC(=O)N[C@@H](C(=O)N1CCC[C@H]1c1ncc(-c2ccc(-c3ccc(-c4nnc([C@@H]5CCCN5C(=O)[C@H](NC(=O)OC)c5ccccc5)[nH]4)cc3)cc2)[nH]1)c1ccccc1` [Example 33], for which the EC50 lay in the range of 0.01 to 0.999 nM.
With `COC(=O)N[C@@H](C(=O)N1CCC[C@H]1c1nnc(-c2ccc(-c3ccc(-c4nnc([C@@H]5CCCN5C(=O)[C@H](NC(=O)OC)c5ccccc5)[nH]4)cc3)cc2)[nH]1)c1ccccc1` [Example 34], the EC50 lay within 0.01 to 0.999 nM.
Consider `CN(C)[C@@H](C(=O)N1CCC[C@H]1c1nnc(-c2ccc(-c3ccc(-c4nnc([C@@H]5CCCN5C(=O)[C@@H](c5ccccc5)N(C)C)[nH]4)cc3)cc2)[nH]1)c1ccccc1` [Example 35], for which the EC50 fell in the range of 1 to 99 nM.
As to `COC(=O)N[C@H](C(=O)N1CCC[C@H]1c1cnc(-c2ccc(-c3ccc(-c4cnc([C@@H]5CCCN5C(=O)[C@@H](NC(=O)OC)[C@@H](C)OC)o4)cc3)cc2)[nH]1)[C@@H](C)OC` [Example 38], the 50% effective concentration (EC50) lay within 0.01 to 0.999 nM.

Still in this experiment, the particulars now being: read-out: EC50 against the HCV 1b genotype (Activity).
For the compound `COC(=O)NC(C(=O)N1CCCC1c1cc(-c2ccc(-c3ccc(-c4cc(C5CCCN5C(=O)C(NC(=O)OC)c5ccccc5)n[nH]4)cc3)cc2)[nH]n1)c1ccccc1` [Example 30, Dimethyl-(1R,1′R)-2,2′-((2S,2′S)-2,2′-(5,5′-(biphenyl-4,4′-diyl)bis(1H-pyrazole-5,3-diyl))bis(pyrrolidine-2,1-diyl))bis(2-oxo-1-phenylethane-2,1-diyl)dicarbamate], the EC50 lay in the range of 1 to 99 nM.

Source of the values: US7741347B2, “Hepatitis C virus inhibitors” (Bristol-Myers Squibb Company, priority 2007, dated 2010).
